Laboratory results taken from paper PMC9704104, “Towards safer anti-inflammatory therapy: synthesis of new thymol–pyrazole hybrids as dual COX-2/5-LOX inhibitors” (Journal of Enzyme Inhibition and Medicinal Chemistry, 2022).
“And” between values parts separate entries of the source, which are not always exact repeats. Equal entries are not always repeated. “Also recorded” adds a separate entry of the source.

Assays:
COX-1 = target: T1, COX-1 (Ovis aries, UniProt P05979); assay: In vitro COX-1 inhibitory assay (Cayman colorimetric COX (ovine) inhibitor screening assay kit); format: biochemical; details: mean of three replicates ± SD
T1 construct: purchased Cayman chemicals 560131
T1 sequence (P05979 25-600): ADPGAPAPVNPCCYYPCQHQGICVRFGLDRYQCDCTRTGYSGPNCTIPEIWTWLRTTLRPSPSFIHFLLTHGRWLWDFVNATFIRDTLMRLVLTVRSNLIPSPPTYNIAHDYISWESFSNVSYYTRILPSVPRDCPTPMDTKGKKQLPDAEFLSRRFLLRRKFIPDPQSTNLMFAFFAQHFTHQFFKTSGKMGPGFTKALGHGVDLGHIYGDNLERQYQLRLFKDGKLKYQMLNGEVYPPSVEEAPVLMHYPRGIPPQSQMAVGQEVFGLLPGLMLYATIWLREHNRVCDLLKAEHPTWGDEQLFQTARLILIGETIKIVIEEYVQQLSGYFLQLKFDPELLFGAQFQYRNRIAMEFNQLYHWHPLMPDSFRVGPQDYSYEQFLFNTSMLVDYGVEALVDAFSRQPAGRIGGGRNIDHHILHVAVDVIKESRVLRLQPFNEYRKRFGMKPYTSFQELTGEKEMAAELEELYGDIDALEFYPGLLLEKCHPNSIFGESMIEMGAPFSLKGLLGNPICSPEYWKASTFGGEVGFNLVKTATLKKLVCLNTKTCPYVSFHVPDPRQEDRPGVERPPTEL
Procedure: (Page: S20, Supplementary file).
Anti-inflammatory activity
In vitro COX-1 and COX-2 inhibitory assay […]
supplied by Cayman chemicals, Ann Arbor, MI, USA according to reported method 1. The colorimetric COX inhibitor screening assay utilizes the peroxidase component of cyclooxygenase. The peroxidase activity was assayed calorimetrically by monitoring the appearance of oxidized N,N,N',N'-tetramethyl-1,4-phenylenediamine (TMPD) at 590nm. The appearance of reagent was carried out following the instructions […]
The half- maximal inhibitor concentrations (IC50µM) were determined and the selectivity index (SI) values were calculated as IC50 (COX-1)/IC50 (COX-2).
1) Background wells- 160 µL of assay buffer and 10 µL of heme were added to background wells.
2) The 100% Initial activity wells- 150 µL of assay buffer, 10 µL of heme and 10 µL of enzyme (COX-1 or COX-2) were added.
3) Inhibitor well- 150 µL of assay buffer, 10 µL of heme and 10 µL of enzyme were added.
4) 10 µL of inhibitor (3 concentrations) in DMSO was added to the inhibitor wells to yield a final […]
5) 10 µL of solvent (DMSO) was added to the 100% Initial activity wells and background wells.
7) 20 µL of colorimetric substrate solution (TMPD) was added to all wells.
8) 20 µL of arachidonic acid was added to all wells to yield a final concentration of 100 µM.
10) The absorbance was measured at 590 nm using a plate reader.
The calculations were carried out in the following manner:
1) The average absorbance of all samples was determined.
2) The absorbance of background wells was subtracted from absorbance of the 100% Initial activity […]
3) Percent inhibition = (100% Initial activity – Inhibitor wells/ 100% Initial activity)∗ 100 […]
Place the 96-well plate on a shaker for at least five minutes. […]

5-LOX = assay: In vitro 5-LOX inhibitory assay (Abnova 5-LOX inhibitor screening assay kit); format: biochemical
Source text: The newly synthesised compounds were screened for their ability to inhibit 5-LOX enzymes. […] (Page: S21, Supplementary file). […]
In vitro LOX inhibitory assay
Inhibitor Screening Assay Kit detects and measures the hydroperoxides produced in the lipoxygenation reaction using a purified LOX. The detection reaction is equally sensitive to hydroperoxides at various positions within the fatty acid and will work with fatty acids of any carbon length. It is thus a general detection method for 5-LOX and can be used to screen libraries of compounds for those which inhibit 5 -LOX enzymes.
1) Blank Wells- add 100 µL of assay buffer to at least two wells.
2) Positive Control Wells- Lipoxygenase (15-LO standard) add 90 µL 15-LO and 10 µL of assay buffer […]
3) 100% Initial Activity Wells- add 90 µL 15-LO and 10 µL of solvent (DMSO) (the same solvent to dissolve the inhibitor) to two wells. The 100% initial activity wells should result in approximately 10 […]
4) Inhibitor Wells- add 90 µL of sample and I10 µL of inhibitor to two wells.
5) Initiate the reaction by adding 10 µL of substrate (either arachidonic acid or linoleic acid) to all the wells. Place the 96-well plate on a shaker for at least five minutes.
6) Add 100 µL of chromogen to each well to stop enzyme catalysis and develop the reaction. Cover with a plate cover and place the 96-well plate on a shaker for at least five minutes.
7) Remove the cover and read the absorbance at 490-500 nm using a plate reader.
Inhibitors were dissolved in DMSO. The inhibitors were added to the assay in a final volume of 10 µL before initiating with substrate. Three concentrations were prepared (25, 50 and 100 µM) to determine the concentration produced 50% enzyme inhibition.
2) The absorbance of blank wells was subtracted from absorbance of the 100% Initial activity and the […]

[1] = system: formalin-induced rat paw oedema; assay: Formalin-induced paw oedema test (acute inflammation model); format: in vivo; details: for Volume of oedema (ml) 4h: 4 h after formalin; for Volume of oedema (ml) 4h / inhibition in vivo at 5 mg/kg / % Relative potency (4h) celecoxib / % Relative potency (4h) diclofenac / Volume of oedema (ml) 0: individual rats 1-3; for Volume of oedema (ml) 4h / inhibition in vivo at 5 mg/kg / % inhibition of paw oedema compared with reference drugs (in words) / Volume of oedema (ml) 0: 5 mg/kg orally; for inhibition in vivo at 5 mg/kg: Rattus norvegicus, po, read-out: % Inhibition of oedema volume; for inhibition in vivo at 5 mg/kg / % inhibition of paw oedema compared with reference drugs (in words): 4 h; for % Relative potency (4h) celecoxib, Mean ± SD / % Relative potency (4h) celecoxib: relative to % inhibition of celecoxib at 4 h; for % Relative potency (4h) celecoxib, Mean ± SD / % Relative potency (4h) diclofenac, Mean ± SD: group mean ± SD; for % Relative potency (4h) diclofenac, Mean ± SD / % Relative potency (4h) diclofenac: relative to % inhibition of diclofenac at 4 h; for % inhibition of paw oedema compared with reference drugs (in words): comparison with celecoxib or diclofenac sodium
Procedure: Animals Adult female albino rats weighing 150-250 g were used (Experimental Animal Centre in Alexandria University). All animals accessed to food and water ad libitum and were housed in 12 h dark/light cycle in a controlled condition at 23-250C. They were allowed to acclimatize for 1 week prior to experimentation. Procedures involving animals and their care were conducted in conformity with the Guide for the Care and Use of Laboratory Animals published by US National Institute of Health4 (NIH publication No. 83-23, revised) and following the ethical guidelines of Alexandria University on laboratory animals. In all tests, adequate considerations were adopted to reduce pain or discomfort of animals (Approved by AlexU-IACUC) 3. […]
Formalin-induced paw edema test (acute inflammation model):
A solution of freshly prepared formalin 5% was used as a phlogistic agent. A mark was made on the lateral malleolus of the rats’ paws delineating the injection sites. The initial volume of paw was measured by means of digital calibrated Vernier caliper .
After 45 minutes, 40 μl formalin were injected subcutaneously into the sub plantar tissue of the right hind paw of all groups under light ether anesthesia . An equal volume of saline was injected into the left hind paw and served as internal control for the degree of inflammation in the right hind paw. 5, 6 The volume of paw was measured in different treatment groups, 4 h following the formalin injection and the amount of increase in paw volume (edema volume) was calculated by subtracting the volumes before and 4 h after the injection of formalin. Edema was expressed as an increase in the volume of paw, and the percentage of edema inhibition (or percent protection against inflammation) for each rat and each group was calculated according to the following equation: […]
Where Vt is the mean volume of edema at specific time interval (4 h) and Vo is the mean volume of edema […]
Relative potency of the tested compounds was expressed as % inhibition of edema for the tested compounds

gastric mucosa = assay: In vivo gastric ulcerogenic activity (gross examination of gastric mucosa); details: fasted rats, 60 mg/kg orally, six hours after treatment, 60 mg/kg
Procedure: Compounds were evaluated for acute gastric ulcerogenic effect in adult female Wistar rats. Gross examination was performed for any evidence of hyperaemia, haemorrhage, definite haemorrhagic erosion, or ulcer according to reported procedures[49]^,[51]
Compounds were evaluated for acute gastric ulcerogenic effect in adult female Wistar rats. Rats (150–250 g)
were divided into groups of six rats each and test compounds, references or DMSO as control were
administered orally at a dose of 60 mg/kg body weight (three times the previously used dose). Six hours after
the treatment they were sacrificed under deep ether anesthesia and their stomachs were removed and opened
through greater curvature, washed under running water and fixed in saline solution. Gross examination was
performed for any evidence of hyperemia, hemorrhage, definite hemorrhagic erosion or ulcer 6, 7 (Approved
The degree of ulcerogenicity was determined by viewing the gastric epithelial ulceration using a 5x
magnifying lens and rated by ulcer score.
Ulcer score was used to grade the incidence and severity of the lesions such as:
1) Shedding of epithelium—10
2) Petechial and frank hemorrhages—20
4) More than two ulcers—40

Structure (SMILES)	IC50 (COX-1) [µM]	melting point [°C]	IC50 (5-LOX) [µM]	Volume of oedema (ml) 4h ([1]; 5 mg/kg) [mL]	inhibition in vivo at 5 mg/kg [1] [%]	% Relative potency (4h) celecoxib, Mean ± SD [1] [%]	% Relative potency (4h) celecoxib [1]	% Relative potency (4h) diclofenac, Mean ± SD [1] [%]	% Relative potency (4h) diclofenac [1]	Gross appearance of gastric mucosa (ulcerogenic potential) (gastric mucosa)	% inhibition of paw oedema compared with reference drugs (in words) ([1]; 5 mg/kg)	Volume of oedema (ml) 0 ([1]; 5 mg/kg) [mL]	% inhibition of paw oedema compared with reference drugs (in words) [1]
COc1ccc(-c2cc(C(=O)NN=Cc3c(C)ccc(C(C)C)c3O)nn2-c2ccc(S(N)(=O)=O)cc2)cc1 [Compound 8c, 4-(3-(2-(2-Hydroxy-3-isopropyl-6-methylbenzylidene)hydrazine-1-carbonyl)-5-(4-methoxyphenyl)-1H-pyrazol-1-yl)benzenesulfonamide]	12.87 ± 0.097	245 to 247	1.91 ± 0.053	5.80	60.4	170.0 ± 9.73	171.80% and 159.50% and 178.70%	117.9 ± 8.39	127.60% and 113.60% and 112.60%	–	–	–	–
Cc1ccc(C(C)C)c(O)c1C=NNC(=O)c1cc(-c2ccc(Br)cc2)n(-c2ccc(S(N)(=O)=O)cc2)n1 [Compound 8b, 4-(5-(4-Bromophenyl)-3-(2-(2-hydroxy-3-isopropyl-6-methylbenzylidene)hydrazine-1-carbonyl)-1H-pyrazol-1-yl)benzene sulphonamide]	13.61 ± 0.096	–	1.58 ± 0.026	–	40.1	–	114.10% and 86.90% and 93.30%	68.50 ± 14.20	84.80% and 61.90% and 58.80%	No gross ulceration	nearly equal activity to celecoxib; also recorded: slightly less % inhibition than that of Diclofenac sodium	5.02	–
Cc1ccc(C(C)C)c(O)c1C=NNC(=O)c1cc(-c2ccccc2)n(-c2ccc(Cl)cc2)n1 [Compound 8g, 1-(4-Chlorophenyl)-N'-(2-hydroxy-3-isopropyl-6-methylbenzylidene)-5-phenyl-1H-pyrazole-3-carbohydrazide]	12.1 ± 0.16	–	1.6 ± 0.042	–	52.7	148.6 ± 2.99	150.0% and 145.20% and 150.70%	103.3 ± 8.20	111.40% and 103.40% and 95.0%	No gross ulceration	–	–	–
Cc1ccc(C(C)C)c(O)c1C=NNC(=O)c1cc(-c2ccc(Br)cc2)n(-c2ccc(Cl)cc2)n1 [Compound 8h, 5-(4-Bromophenyl)-1-(4-chlorophenyl)-N'-(2-hydroxy-3-isopropyl-6-methylbenzylidene)-1H-pyrazole-3-carbohydrazide]	12.6 ± 1.36	–	1.97 ± 0.026	–	53.6	140.9 ± 20.93	152.60% and 116.70% and 153.30%	97.67 ± 15.13	113.30% and 83.10% and 96.60%	variable degrees of hyperaemia; also recorded: Hyperemia without gross ulceration	–	5.02	slightly less % inhibition than that of Diclofenac sodium
COc1ccc(-c2cc(C(=O)NN=Cc3c(C)ccc(C(C)C)c3O)[nH]n2)cc1 [Compound 4c, N'-(2-Hydroxy-3-isopropyl-6-methylbenzylidene)-3–(4-methoxyphenyl)-1H-pyrazole-5-carbohydrazide]	10.22 ± 0.046	246 to 248	2.91 ± 0.068	6.20	66.2	165.7 ± 20.01	188.50% and 151.20% and 157.30%	115.6 ± 21.54	140.0% and 107.60% and 99.20%	variable degrees of hyperaemia; also recorded: Hyperemia without gross ulceration	–	–	–
COc1ccc(-c2cc(C(=O)NN=Cc3c(C)ccc(C(C)C)c3O)nn2-c2ccc(Cl)cc2)cc1 [Compound 8i, 5-(4-Methoxyphenyl)-1-(4-chlorophenyl)-N'-(2-hydroxy-3-isopropyl-6-methylbenzylidene)-1H-pyrazole-3-carbohydrazide]	12.6 ± 0.46	218 to 220	2.78 ± 0.016	–	67.6	–	192.30% and 183.30% and 210.70%	135.4 ± 6.60	142.90% and 130.50% and 132.80%	variable degrees of hyperaemia; also recorded: Hyperemia without gross ulceration	–	5.30	double % inhibition exhibited by Celecoxib
